Experimental findings from patent publication US11510913B1, “Modulating expression level of a gene encoding an apurinic/apyrimidinic endodeoxyribonuclease protein by treating a human subject with a nitroxide” (priority 2021, dated 2022) are described below.

Test [1] has as its system APEX1. The test is described as follows: Treating human subjects with Tempol, serum level of APEX1 following treatment. The class given is in vivo. The settings on record: 2000 mg per day for 180 days. On the procedure: (§1) A 70-kilogram human subject over the age of 65 is identified as having, or known to have, or suspected of having an increased expression level of APEX1. The human subject is administered a dose of 2000 mg of Tempol (or another nitroxide antioxidant) per day for 180 days. This may be administered in a single dose, or may be administered as a number of smaller doses over a 24-hour period: for example, four 500-mg doses at […]. Following treatment, the serum level of APEX1, is decreased.
A 70-kilogram human subject is identified as having, or known to have, or suspected of having an increased expression level of APEX1. The human subject is administered a dose of 2000 mg of Tempol (or another nitroxide antioxidant) per day for 180 days. This may be administered in a single dose, or may be administered as a number of smaller doses over a 24-hour period: for example, four 500-mg doses at […]. Following treatment, the serum level of APEX1, is decreased.
as §1, with “65 and having a cardiovascular disease” for “65”, “for an increased expression level of APEX1. Or a 70-kilogram human subject over the age of 65 is” for “as having, or”, “have a cardiovascular disease and/or” for “have, or suspected of having an”
(§2) A 70-kilogram human subject at risk of developing colorectal cancer is identified for increased expression level of APEX1. Or a 70-kilogram human subject is known to be at risk of developing colorectal cancer and/or have increased expression level of APEX1. The human subject is administered a dose of 2000 mg of Tempol (or another nitroxide antioxidant) per day for 180 days. This may be administered in a single dose, or may be administered as a number of smaller doses over a 24-hour period: for example, four 500-mg doses at […]. Following treatment, the serum level of APEX1, is decreased.
as §2, with “of developing an autoimmune disease (e.g., rheumatoid arthritis) is identified” for “of developing colorectal cancer is identified”, “of developing an autoimmune disease and/or have” for “of developing colorectal cancer and/or have”
The human subject is administered a dose of 2000 mg of Tempol (or another nitroxide antioxidant) per day for 180 days. This may be administered in a single dose, or may be administered as a number of smaller doses over a 24-hour period: for example, four 500-mg doses at […]. Following treatment, the serum level of APEX1, is decreased.
as §2, with “of developing a neurodegenerative disease (e.g., Parkinson's Disease) is identified” for “of developing colorectal cancer is identified”, “of developing a neurodegenerative disease and/or have” for “of developing colorectal cancer and/or have”, “is decreased. […]” for “is decreased.”

Test [2] relates to APEX1. The test is described as follows: Effects of Tempol on gene expression in cardiac tissue of mice, chip-based microarray. The class given is in vivo. On the procedure:
To assess the effects of Tempol on gene expression, Tempol was administered to experimental mice at a dose of 5 mg/g of food from 14 months to 31 months after birth. Mice receiving the same food without the addition of Tempol were used as a negative control. At the age of 31 months, the experimental animals were sacrificed and the hearts were surgically removed. The expression of a broad spectrum of genes in the cardiac tissue was assessed using chip-based microarray technology. Such chips are well known in the art and are widely used to assess gene expression.

SMILES strings stand for the structures.

For `CC1(C)CC(O)CC(C)(C)N1[O]` [Tempol, 4-hydroxy-2,2,6,6-tetramethylpiperidine-1-oxyl], the “serum level of APEX1” value in the test on APEX1 [1] (Example 2: 70-kilogram human subject over the age of 65 with increased expression level of APEX1) is “decreased”; in the test with APEX1 [1] (Example 3: 70-kilogram human subject with increased expression level of APEX1), “decreased”; with APEX1 [1] (Example 4: human subject over the age of 65 having a cardiovascular disease), “decreased”; in the test on APEX1 [1] (Example 5: human subject at risk of developing colorectal cancer) it was “decreased”; in the test on APEX1 [1] (Example 6: human subject at risk of developing an autoimmune disease (e.g., rheumatoid arthritis)) it was “decreased”; in the test on APEX1 [1] (Example 7: human subject at risk of developing a condition due to aging) it was “decreased”. The “serum level of APEX1” value in the test with APEX1 [1] (Example 8: human subject at risk of developing a neurodegenerative disease (e.g., Parkinson's Disease)) is reported as “decreased”; with APEX1 [1] (Example 9: human subject having an infection (e.g., bacterial, fungal, or viral)) it was “decreased”. The “Fold change (APEX1 expression)” value in the test with APEX1 [2] (Tempol 5 mg/g of food from 14 months to 31 months after birth, cardiac tissue at 31 months, vs mice on same food without Tempol) is −1.23. Further, in the test on APEX1 [2] (Tempol 5 mg/g of food from 14 to 31 months after birth, microarray), the “expression of APEX1 in the cardiac tissue” value was “statistically significant decrease in expression”.
